By inhibition is commonly meant the share of the control response that was lost under treatment. The term logP denotes a log measure of how a compound divides between an organic and an aqueous phase. Read a low logP as a more hydrophilic compound.

Active and inactive are the calls of the source. The calls are words filed in the database; no cut-off is given here.

Results on four compounds are retold here after ChEMBL document CHEMBL3045759, “Synthesis of a New 1, 2, 4-Oxadiazol-5-one Derivative, KC10017, and Its Controlling Activity against Rice Blast Disease Caused by Magnaporthe grisea” (J Pestic Sci, 2002).

For data set [1], the system named is Pyricularia grisea. The data set is described as follows: microbe, parasite or virus in culture. The data set is classed as functional. The following applies: P-2.
Data set [2] has as its system Pyricularia grisea. Nature of the data set: microbe, parasite or virus in culture. The data set is classed as functional. To be noted: P-2. The source holds these as a separate data set.
In data set [3] the test system is Pyricularia grisea. Nature of the data set: microbe, parasite or virus in culture. The data set is classed as functional. The following applies: P-2. The source holds these as a separate data set.
The subject of data set [4] is Pyricularia grisea. The data set is described as follows: microbe, parasite or virus in culture. The data set is classed as functional. To be noted: P-2. This is another data set of the same source.
In data set [5] the test system is Pyricularia grisea. Nature of the data set: Fungicidal activity against Magnaporthe grisea P-2 in rice plant assessed as control of rice blast disease at 100 ug/ml measured after 14 days of treatment at 26 +/- 2 degC measured afterr 5 days. Type of data set: functional, organism-based.
Data set [6] relates to Pyricularia grisea. Nature of the data set: Fungicidal activity against Magnaporthe grisea P-2 in rice plant assessed as control of rice blast disease at 50 ug/ml. The data set is classed as functional, organism-based.
The test system of data set [7] is Blumeria hordei. The data set is described as follows: Fungicidal activity against Blumeria graminis f. sp. hordei assessed as control of barley powdery mildew at 50 ug/ml. Type of data set: functional, organism-based.
For data set [8], the system named is Pyricularia grisea. Nature of the data set: Inhibition of mycelial growth of Magnaporthe grisea P-2 assessed as mycelial dry weight at 0.1 to 100 ug/ml at 25 degC. Type of data set: functional, organism-based.
Data set [9] can be described thus: Lipophilicity, log P of the compound. Type of data set: physicochemical. To be noted: octanol/water.
Data set [10] deals with Botrytis cinerea. Nature of the data set: Fungicidal activity against Botryotinia fuckeliana assessed as control of cucumber gray mold disease at 50 ug/ml. Type of data set: functional, organism-based.
In data set [11] the test system is Pyricularia grisea. Nature of the data set: Fungicidal activity against Magnaporthe grisea P-2 in rice plant assessed as control of rice blast disease at 0.5 ug/ml at 26 +/- 2 degC measured after 5 days. The data set is classed as functional, organism-based.
Data set [12] deals with Rhizoctonia solani. The data set is described as follows: Fungicidal activity against Rhizoctonia solani assessed as control of rice sheath blight disease at 50 ug/ml. The data set is classed as functional, organism-based.
For data set [13], the system named is Puccinia triticina. Nature of the data set: Fungicidal activity against Puccinia triticina assessed as control of wheat leaf rust disease at 50 ug/ml. Type of data set: functional, organism-based.
Data set [14] deals with Phytophthora infestans. Nature of the data set: Fungicidal activity against Phytophthora infestans assessed as control of tomato late blight disease at 50 ug/ml. Type of data set: functional, organism-based.

For `CCOP(=O)(Sc1ccccc1)Sc1ccccc1` [EDIFENPHOS], the inhibition at 1 µg/mL in data set [1] was 44.8%; in data set [2], 76.4%. Moreover, testing at 10 µg/mL in [3] gave an inhibition of 100%.
In the case of `Cc1cccc2sc3nncn3c12` [TRICYCLAZOLE], the inhibition at 1 µg/mL in [1] turned out to be 0%; in [2], 3.8%. In addition, the values for the inhibition at 10 µg/mL in data set [4] and in [3] were 0% and 7.2%, respectively.
Turning to `CN(CC[C@H](N)CC(=O)N[C@H]1C=C[C@H](n2ccc(N)nc2=O)O[C@@H]1C(=O)O)C(=N)N` [BLASTICIDIN_S], the inhibition at 1 µg/mL in data set [1] is 25.2%; in data set [2], 76.6%. Further, the inhibition at 10 µg/mL in [3] was 100%.
In the case of `Cc1cccc(NC(=O)Cn2c(COc3c(C)cc(Br)cc3C)noc2=O)c1`, the outcome in [5], in data set [6] and in [11] was Active. Besides, the inhibition at 1 µg/mL was determined as 0% in data set [1] and 2.9% in data set [2]. In addition, the outcome in data set [7], in data set [10], in [12], in data set [13] and in data set [14] was inactive. Also, the inhibition result in [8] was “inactive”. In [9], the logP turned out to be 6.01. The inhibition at 10 µg/mL in data set [4] and in data set [3] was 0% throughout.
